Reference: patent US8092829B2, “Use of R-arylpropionic acids for treating illnesses with a rheumatic nature” (Paz Arzneimittelentwicklungsgesellschaft mbH, priority 2000, dated 2012)

System: AP-1
Experiment: Inhibition of AP-1 activation (AP-1 DNA binding activity by EMSA) in LPS-stimulated RAW 264-7 macrophages
Format: cell-based, murine
Settings: LPS-stimulated RAW 264-7 cells, nuclear extract; for AP-1 DNA binding at the highest concentration: 1000 μM (tested 0.1-1000 μM)
Experimental: The inhibition of the activation of AP-1 was shown with a pharmacological model. For this purpose, a cell culture of the murine macrophage cell line RAW 264-7 was taken and stimulated with 10 mg/ml LPS for 1 hour in the absence or in the presence of flurbiprofen. R-flurbiprofen (0.1, 1, 10, 100 and 1000 μM) and S-flurbiprofen (0.1, 1, 10, 100 and 1000 μM) were dissolved in phosphate buffer, added to the cell cultures 30 minutes before the LPS treatment. After conclusion of the treatment, the cells were harvested and worked up in a cytosol fraction and a cell nucleus extract. The cell nucleus extract ([…]) was incubated for 30 minutes with the AP-1-specific oligonucleotide 5′-CGCTT GATGACTCAGCCGGAA-3′ which is terminally labelled with ^32P ATP. From the incubation medium was separated the nucleus protein DNA complexes from the non-bound DNA by electro-phoresis (electrophoretic mobile shift assay EMSA). After drying of the gels, these were visualised by means of autoradiography.

Structure (SMILES)	AP-1 DNA binding at the highest concentration	inhibition of AP-1 DNA binding (10-1000 μM, added 30 minutes before LPS)
C[C@@H](C(=O)O)c1ccc(-c2ccccc2)c(F)c1 [R-flurbiprofen]	completely suppressed	inhibits the AP-1 DNA binding dosage-dependent
C[C@H](C(=O)O)c1ccc(-c2ccccc2)c(F)c1 [S-flurbiprofen, reference compound]	a reduction was found only in the case of the highest concentration	
